Test results published in publication PMC8352984, “Estrogen mediates sex differences in preoptic neuropeptide and pituitary hormone production in medaka” (Communications Biology, 2021).

Assays:
[1] = tested on: adcyap1-expressing neurons in the PMp; assay: Gonadectomy and sex steroid treatment, in situ hybridization of adcyap1 in PMp; format: in vivo, medaka (Oryzias latipes); conditions: 100 ng ml^-1 in water, 6 days; for number of adcyap1-expressing neurons in PMp: castrated (CX) males
Source text: (§1) Fig. 4 Sex-biased expression of adcyap1 and vip in the POA is established by ovarian estrogen. a Levels of adcyap1 and vip expression in the brain of sex-reversed XX males and XY females versus typical XY males and XX females (n = 8 per group). b Number of adcyap1- and vip-expressing neurons in the PMp of sex-reversed XX males and XY females (n = 5 per group). c Representative micrographs showing adcyap1 and vip expression in the PMp of sex-reversed XX males and XY females. Scale bars represent 50 μm. d Number of adcyap1- and vip-expressing neurons in the PMp of sham-operated (sham) males and castrated males exposed to vehicle alone (CX), 11-ketotestosterone (CX + KT), or estradiol-17β (CX + E2) (n = 5 per group, except CX + E2 for adcyap1 and CX + KT for vip, where n = 4). e Representative micrographs showing adcyap1 and vip expression in the PMp of sham, CX, CX + KT, and CX + E2 males. Scale bars represent 50 μm. f Number of adcyap1- and vip-expressing neurons in the PMp of sham females and ovariectomized females exposed to vehicle alone (OVX), KT (OVX + KT), or E2 (OVX + E2) (n = 5 per group). g Representative micrographs showing adcyap1 and vip expression in the PMp of sham, OVX, OVX + KT, and OVX + E2 females. Scale bars represent 50 μm. Quantitative data were expressed as means with error bars representing standard error of the mean. Statistical differences were assessed by Bonferroni’s post-hoc test (a, d, f) and unpaired t-test (b). *p < 0.05; **p < 0.01; ***p < 0.001.
(§2) For both males and females, the gonad was removed under 0.02% tricaine methane sulfonate anesthesia (Sigma–Aldrich, St. Louis, MO, USA) through a small incision in the ventrolateral abdominal wall. Immediately after removal of the gonad, the incision was sutured with nylon thread. Sham-operated fish underwent the same surgical treatment as gonadectomized fish except for gonad removal. After a recovery period of 3 days in saline (0.9% (w v^−1) NaCl), gonadectomized fish were immersed in water containing 100 ng ml^−1 of KT (Cosmo Bio, Tokyo, Japan) or E2 (Fujifilm Wako Pure Chemical Corporation), or vehicle (ethanol) alone for 6 days and then sampled. Sham-operated fish were treated with vehicle alone and used as controls. The sex steroid concentration used was based on previously reported serum steroid levels in medaka.
(§3) The procedure for single-label in situ hybridization has been described elsewhere. In brief, the brain and pituitary were fixed in 4% paraformaldehyde (PFA) and embedded in paraffin. Serial coronal sections of 10 μm thickness were cut and hybridized with each of the six DIG-labeled Adcyap1/Vip receptor probes described above and the DIG-labeled adcyap1 and vip probes used for northern blot analysis. Hybridization signals were visualized by using alkaline phosphatase-conjugated anti-DIG antibody and 5-bromo-4-chloro-3-indolyl phosphate/nitro blue tetrazolium (BCIP/NBT) substrate (Roche Diagnostics). Color development was allowed to proceed for more than 9 h or was stopped after 1.5 h to avoid saturation (for quantification of vip expression after gonadectomy and sex steroid replacement). All sections in each comparison were processed simultaneously under the same conditions.
(§4) To obtain quantitative data, the number of neurons positive for a hybridization signal was counted manually in each brain nucleus. In some brain regions, these neurons were continuously distributed across two or more nuclei such that it was difficult to count the number of the neurons separately in each nucleus. In this case, the total number of the neurons in the nuclei was counted. For the pituitary and nuclei where these neurons were tightly clustered and their exact number could not be determined, sections were photographed and converted to black and white binary images by thresholding using Adobe Photoshop (ver. 22; Adobe Systems, San Jose, CA, USA). […]

[2] = tested on: vip-expressing neurons in the PMp; assay: Gonadectomy and sex steroid treatment, in situ hybridization of vip in PMp; format: in vivo, medaka (Oryzias latipes); conditions: 100 ng ml^-1 in water, 6 days; for number of vip-expressing neurons in PMp: castrated (CX) males
Source text: as §1, §2, §3, §4

[3] = ovariectomized females, effect on the ovariectomy-induced increase
[4] = ovariectomized females, effect on the ovariectomy-induced reduction

| Structure (SMILES) | number of adcyap1-expressing neurons in PMp ([1]; fish 1 (Fig. 4d)) | number of adcyap1-expressing neurons in PMp ([1]; fish 3 (Fig. 4d)) | number of adcyap1-expressing neurons in PMp ([1]; fish 4 (Fig. 4d)) | number of adcyap1-expressing neurons in PMp ([1]; fish 5 (Fig. 4d)) | number of adcyap1-expressing neurons in PMp (in words) ([1]; castrated males) | number of adcyap1-expressing neurons in PMp (in words) [1, 3] | number of vip-expressing neurons in PMp ([2]; fish 1 (Fig. 4d)) | number of vip-expressing neurons in PMp ([2]; fish 2 (Fig. 4d)) | number of vip-expressing neurons in PMp ([2]; fish 3 (Fig. 4d)) | number of vip-expressing neurons in PMp ([2]; fish 4 (Fig. 4d)) | number of vip-expressing neurons in PMp ([2]; fish 5 (Fig. 4d)) | number of vip-expressing neurons in PMp (in words) ([2]; castrated males) | number of vip-expressing neurons in PMp (in words) [2, 4] | number of adcyap1-expressing neurons in PMp ([1]; fish 2 (Fig. 4d)) |
| --- | --- | --- | --- | --- | --- | --- | --- | --- | --- | --- | --- | --- | --- | --- |
| C[C@]12CC[C@@H]3c4ccc(O)cc4CC[C@H]3[C@@H]1CC[C@@H]2O [E2, estradiol-17β] | 56.0 | 85.0 | 112.0 | 79.5 | significantly reduced adcyap1-expressing neurons | completely abolished | 260.0 | 388.5 | 363.0 | 447.0 | 311.0 | increased vip-expressing neurons | restored |  |
| C[C@]12CC(=O)[C@H]3[C@@H](CCC4=CC(=O)CC[C@@]43C)[C@@H]1CC[C@@H]2O [KT, 11-ketotestosterone] | 198.0 | 273.5 | 161.5 | 147.0 | did not affect either of these neurons | had no such effect | 98.5 |  | 118.0 | 84.5 | 192.5 | did not affect either of these neurons | not KT treatment | 271.0 |
